Read-outs that look alike come from different tables or passages of the source.
What was measured:
[1] = target: T1, recombinant Mcl-1 (residues 172-327) (Homo sapiens, UniProt Q07820); assay: Bak peptide binding assay: fluorescence polarization anisotropy competition (FITC-Bak BH3 peptide); settings: 10 nM FITC-Bak, 14 nM Mcl-1, Ki converted from IC50
T1 construct: 14 nM recombinant Mcl-1 (residues 172-327) were added to assay buffer
Description: (§1) Bak Peptide Binding Assay
(§2) Compound affinity was measured using a fluorescence polarization anisotropy competition assay. Anisotropy measurements were carried out in 384-well, black, flat-bottom plates (Greiner Bio-one, Monroe, N.C., USA). The assay was run using a fluorescein isothiocyanate-labeled BH3 peptide derived from Bak (FITC-AHx-[…] […] H2) (SEQ ID NO: 1) that was purchased from GenScript (Piscataway, N.J.) at >95% purity and used without further purification. 10 nM FITC-Bak peptide and 14 nM recombinant Mcl-1 (residues 172-327) were added to assay buffer (3 mM dithiothreitol, 50 mM NaCl, 20 mM Tris, pH 7.5). For selectivity assays, 40 nM Bcl-2 (residues 1-207^A96T,G110R, Δ35-91, replaced with Bcl-xL35-50) or 4 nM Bcl-xL (residues 1-209, loop 45-86 deleted) were incubated with 10 nM FITC-Bak in assay buffer.
(§3) Compounds are diluted in DMSO in a 10-point, 3-fold serial dilution scheme. 2.5 uL compound is added to 47.5 uL of assay buffer containing FITC-Bak and protein, for a final DMSO concentration of 5% and a top concentration of 20 uM. […] The plate was mixed and incubated for 90 minutes at room temperature. Anisotropy is measured at excitation wavelength 480 nm and emission wavelength 535 nm using an EnVision Multi-label plate reader (PerkinElmer, Wellesley, Mass., USA). Fluorescence anisotropy is plotted against compound concentration to generate an IC50 (inhibitor concentration at which 50% of bound peptide is displaced) by fitting the data to a 4-parameter logistic model using XLFit software (Guildford, Surrey, UK). IC50 is converted to a binding dissociation constant (Ki value) according to the formula of Wang Z. FEBS Lett (1996) 3, 245: Ki=[I]50/([L]50/Kd+[P]0/Kd+1) where [I]50 is the concentration of the free inhibitor at 50% inhibition, [L]50 is the concentration of the free labeled ligand at 50% inhibition, [P]0 is the concentration of the free protein at 0% inhibition, Kd represents the dissociation constant of the FITC peptide probe.

[2] = target: T2, Bcl-xL (residues 1-209, loop 45-86 deleted) (Homo sapiens, UniProt Q07817, DEL45-86); assay: biochemical; assay type: binding; settings: Table 3; 10 nM FITC-Bak, 4 nM Bcl-xL; top concentration 20 uM
T2 construct: Bcl-xL (residues 1-209, loop 45-86 deleted)
Description: as §1, §2, §3

[3] = Ki For Inhibition of Mcl-I Protein, Table 2, binned range

T1 sequence (Q07820 172-327): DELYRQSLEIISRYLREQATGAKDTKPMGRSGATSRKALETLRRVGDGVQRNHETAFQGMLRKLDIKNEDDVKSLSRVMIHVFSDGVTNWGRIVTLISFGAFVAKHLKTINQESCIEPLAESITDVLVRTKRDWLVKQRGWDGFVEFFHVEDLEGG
T2 sequence (Q07817 other isoform, or with tags, fused parts or gaps DEL45-86): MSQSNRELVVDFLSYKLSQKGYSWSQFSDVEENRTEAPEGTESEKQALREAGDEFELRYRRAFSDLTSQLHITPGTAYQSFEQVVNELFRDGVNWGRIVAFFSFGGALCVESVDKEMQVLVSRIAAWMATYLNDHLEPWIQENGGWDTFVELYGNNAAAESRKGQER

| SMILES | Ki [1, 3] | also measured |
| --- | --- | --- |
| O=C(O)c1c(CCOc2cccc3ccccc23)c2cccc3c2n1CCS3 [Example 1, 6-(2-(naphthalen-1-yloxy)ethyl)-2,3-dihydro-[1,4]thiazino[2,3,4-hi]indole-5-carboxylic acid] | 1 to 9.99 µM | – |
| CS(=O)(=O)NC(=O)c1c(CCOc2cccc3ccccc23)c2cccc3c2n1CCS3 [Example 2, N-(methylsulfonyl)-6-(2-(naphthalen-1-yloxy)ethyl)-2,3-dihydro-[1,4]thiazino[2,3,4-hi]indole-5-carboxamide] | 1 to 9.99 µM | – |
| Cc1cc(OCCc2c(C(=O)O)n3c4c(cccc24)SCC3)cc(C)c1Cl [Example 3, 6-(2-(4-chloro-3,5-dimethylphenoxy)ethyl)-2,3-dihydro-[1,4]thiazino[2,3,4-hi]indole-5-carboxylic acid] | 1 to 9.99 µM | – |
| O=C(O)c1c(CCOc2cccc3ccccc23)c2cccc3c2n1CCC3 [Example 4, 1-(2-(naphthalen-1-yloxy)ethyl)-5,6-dihydro-4H-pyrrolo[3,2,1-ij]quinoline-2-carboxylic acid] | 1 to 9.99 µM | – |
| O=C(O)c1c(CCOc2cccc3ccccc23)c2cccc3c2n1CCO3 [Example 5, 6-(2-(naphthalen-1-yloxy)ethyl)-2,3-dihydro-[1,4]oxazino[2,3,4-hi]indole-5-carboxylic acid] | 1 to 9.99 µM | – |
| O=C(NS(=O)(=O)c1ccccc1)c1c(CCOc2cccc3ccccc23)c2cccc3c2n1CCO3 [Example 6, 6-(2-(naphthalen-1-yloxy)ethyl)-N-(phenylsulfonyl)-2,3-dihydro-[1,4]oxazino[2,3,4-hi]indole-5-carboxamide] | 0.501 to 0.999 µM | – |
| O=C(O)c1c(CCCOc2cccc3ccccc23)c2cccc3c2n1CCS3 [Example 7, 6-(3-(naphthalen-1-yloxy)propyl)-2,3-dihydro-[1,4]thiazino[2,3,4-hi]indole-5-carboxylic acid] | 0.101 to 0.299 µM | Ki ([1]; Ki Mcl-1, Table 3): 0.107 µM; Ki [2]: > 20 µM |
| CS(=O)(=O)NC(=O)c1c(CCCOc2cccc3ccccc23)c2cccc3c2n1CCS3 [Example 8, N-(methylsulfonyl)-6-(3-(naphthalen-1-yloxy)propyl)-2,3-dihydro-[1,4]thiazino[2,3,4-hi]indole-5-carboxamide] | 1 to 9.99 µM | – |
| O=C(O)c1c(CCCOc2cccc3c2CCCC3)c2cccc3c2n1CCS3 [Example 9, 6-(3-((5,6,7,8-tetrahydronaphthalen-1-yl)oxy)propyl)-2,3-dihydro-[1,4]thiazino[2,3,4-hi]indole-5-carboxylic acid] | 0.101 to 0.299 µM | – |
| O=C(O)c1c(CCCOc2ccc(Cl)c3ccccc23)c2cccc3c2n1CCS3 [Example 10, 6-(3-((4-chloronaphthalen-1-yl)oxy)propyl)-2,3-dihydro-[1,4]thiazino[2,3,4-hi]indole-5-carboxylic acid] | 0.101 to 0.299 µM | Ki ([1]; Table 3, read-out: Ki Mcl-1): 0.201 µM; Ki [2]: 4.7 µM |
| O=C(O)c1c(CCCOc2ccc3c(c2)CCCC3)c2cccc3c2n1CCS3 [Example 11, 6-(3-((5,6,7,8-tetrahydronaphthalen-2-yl)oxy)propyl)-2,3-dihydro-[1,4]thiazino[2,3,4-hi]indole-5-carboxylic acid] | 0.301 to 0.5 µM | – |
| Cc1cc(OCCCc2c(C(=O)O)n3c4c(cccc24)SCC3)ccc1Cl [Example 12, 6-(3-(4-chloro-3-methylphenoxy)propyl)-2,3-dihydro-[1,4]thiazino[2,3,4-hi]indole-5-carboxylic acid] | 0.101 to 0.299 µM | – |
| Cc1cc(OCCCc2c(C(=O)O)n3c4c(cccc24)SCC3)cc(C)c1Cl [Example 13, 6-(3-(4-chloro-3,5-dimethylphenoxy)propyl)-2,3-dihydro-[1,4]thiazino[2,3,4-hi]indole-5-carboxylic acid] | ≤ 0.1 µM | Ki ([1]; Table 3, read-out: Ki Mcl-1): 0.071 µM; Ki [2]: > 20 µM |
| O=C(O)c1c(CCCOc2cccc3ccccc23)c2cccc3c2n1CCC3 [Example 14, 1-(3-(naphthalen-1-yloxy)propyl)-5,6-dihydro-4H-pyrrolo[3,2,1-ij]quinoline-2-carboxylic acid] | 0.301 to 0.5 µM | – |
| CS(=O)(=O)NC(=O)c1c(CCCOc2cccc3ccccc23)c2cccc3c2n1CCC3 [Example 15, N-(methylsulfonyl)-1-(3-(naphthalen-1-yloxy)propyl)-5,6-dihydro-4H-pyrrolo[3,2,1-ij]quinoline-2-carboxamide] | 1 to 9.99 µM | – |
| Cc1cc(OCCCc2c(C(=O)O)n3c4c(cccc24)CCC3)cc(C)c1Cl [Example 16, 1-(3-(4-chloro-3,5-dimethylphenoxy)propyl)-5,6-dihydro-4H-pyrrolo[3,2,1-ij]quinoline-2-carboxylic acid] | 0.101 to 0.299 µM | – |
| Cc1cc(OCCCc2c(C(=O)NS(=O)(=O)c3ccccc3)n3c4c(cccc24)CCC3)cc(C)c1Cl [Example 17, 1-(3-(4-chloro-3,5-dimethylphenoxy)propyl)-N-(phenylsulfonyl)-5,6-dihydro-4H-pyrrolo[3,2,1-ij]quinoline-2-carboxamide] | 0.301 to 0.5 µM | – |
| O=C(O)c1c(CCCOc2cccc3ccccc23)c2cccc3c2n1CCCS3 [Example 18, 7-(3-(naphthalen-1-yloxy)propyl)-3,4-dihydro-2H-[1,4]thiazepino[2,3,4-hi]indole-6-carboxylic acid] | 0.101 to 0.299 µM | – |
| CS(=O)(=O)NC(=O)c1c(CCCOc2cccc3ccccc23)c2cccc3c2n1CCCS3 [Example 19, N-(methylsulfonyl)-7-(3-(naphthalen-1-yloxy)propyl)-3,4-dihydro-2H-[1,4]thiazepino[2,3,4-hi]indole-6-carboxamide] | 0.501 to 0.999 µM | – |
| O=C(O)c1c(CCCOc2cccc3ccccc23)c2cccc3c2n1CCC[S+]3[O-] (stereo not drawn) [Example 20, 7-(3-(naphthalen-1-yloxy)propyl)-3,4-dihydro-2H-[1,4]thiazepino[2,3,4-hi]indole-6-carboxylic acid 1-oxide] | ≤ 0.1 µM | Ki [2]: > 20 µM |
| O=C(O)c1c(CCCOc2cccc3ccccc23)c2cccc3c2n1CCCS3(=O)=O [Example 21, 7-(3-(naphthalen-1-yloxy)propyl)-3,4-dihydro-2H-[1,4]thiazepino[2,3,4-hi]indole-6-carboxylic acid 1,1-dioxide] | ≤ 0.1 µM | – |
| O=C(O)c1c(CCCOc2cccc3ccccc23)c2cccc3c2n1CCS3(=O)=O [Example 22, 6-(3-(naphthalen-1-yloxy)propyl)-2,3-dihydro-[1,4]thiazino[2,3,4-hi]indole-5-carboxylic acid 1,1-dioxide] | ≤ 0.1 µM | – |
| Cc1cc(OCCCc2c(C(=O)O)n3c4c(cccc24)SCCC3)cc(C)c1Cl [Example 23, 7-(3-(4-chloro-3,5-dimethylphenoxy)propyl)-3,4-dihydro-2H-[1,4]thiazepino[2,3,4-hi]indole-6-carboxylic acid] | ≤ 0.1 µM | Ki ([1]; Table 3, read-out: Ki Mcl-1): 0.04 µM; Ki [2]: > 20 µM |
| Cc1cc(OCCCc2c(C(=O)NS(=O)(=O)c3ccccc3)n3c4c(cccc24)SCCC3)cc(C)c1Cl [Example 24, 7-(3-(4-chloro-3,5-dimethylphenoxy)propyl)-N-(phenylsulfonyl)-3,4-dihydro-2H-[1,4]thiazepino[2,3,4-hi]indole-6-carboxamide] | 0.101 to 0.299 µM | – |
| O=C(O)c1c(CCCOc2cccc3ccccc23)c2cccc3c2n1CCO3 [Example 25, 6-(3-(naphthalen-1-yloxy)propyl)-2,3-dihydro-[1,4]oxazino[2,3,4-hi]indole-5-carboxylic acid] | 0.101 to 0.299 µM | – |
| Cc1cc(OCCCc2c(C(=O)O)n3c4c(cccc24)OCC3)cc(C)c1Cl [Example 26, 6-(3-(4-chloro-3,5-dimethylphenoxy)propyl)-2,3-dihydro-[1,4]oxazino[2,3,4-hi]indole-5-carboxylic acid] | ≤ 0.1 µM | – |
| Cc1cc(OCCCc2c(C(=O)O)n3c4c(c(Cl)ccc24)OCC3)cc(C)c1Cl [Example 27, 9-chloro-6-(3-(4-chloro-3,5-dimethylphenoxy)propyl)-2,3-dihydro-[1,4]oxazino[2,3,4-hi]indole-5-carboxylic acid] | ≤ 0.1 µM | Ki ([1]; Table 3, read-out: Ki Mcl-1): 0.009 µM; Ki [2]: > 20 µM |
| Cc1cc(OCCCc2c(C(=O)O)n3c4c(c(Cl)ccc24)CCC3)cc(C)c1Cl [Example 28, 7-chloro-1-(3-(4-chloro-3,5-dimethylphenoxy)propyl)-5,6-dihydro-4H-pyrrolo[3,2,1-ij]quinoline-2-carboxylic acid] | ≤ 0.1 µM | – |

— patent publication US9949965B2, “Tricyclic indole Mcl-1 inhibitors and uses thereof” (priority 2014, dated 2018)
